Data: patent US10428044B2, “3-amino-1,5,6,7-tetrahydro-4H-indol-4-ones” (Bayer Pharma Aktiengesellschaft, priority 2014, dated 2019)

The compounds below were run against (recombinant) catalytic domain of human Bub1 (amino acids 704-1085) (Homo sapiens (Human), UniProt O43683) (assay: Bub1 kinase assay (TR-FRET)). Conditions: ATP 10 μM final, peptide substrate 1 μM final, 60 min at 22° C., read-out: Biological Assay: Bub1 kinase assay median IC50.
Chain of (recombinant) catalytic domain of human Bub1 (amino acids 704-1085) (O43683 704-1085): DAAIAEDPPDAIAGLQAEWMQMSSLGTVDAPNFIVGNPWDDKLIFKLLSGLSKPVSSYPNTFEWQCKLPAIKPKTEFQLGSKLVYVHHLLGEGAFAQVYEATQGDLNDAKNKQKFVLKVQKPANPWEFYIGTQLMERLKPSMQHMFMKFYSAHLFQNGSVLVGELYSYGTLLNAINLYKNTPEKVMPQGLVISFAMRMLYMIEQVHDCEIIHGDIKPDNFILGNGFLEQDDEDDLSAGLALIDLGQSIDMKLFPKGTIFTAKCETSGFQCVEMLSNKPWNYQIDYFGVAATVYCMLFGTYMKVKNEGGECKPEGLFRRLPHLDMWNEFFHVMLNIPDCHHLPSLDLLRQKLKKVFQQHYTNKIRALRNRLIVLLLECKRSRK
Format: biochemical
Summary of the method: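 Compounds were serially diluted 1:3.4 from 2 mM DMSO stocks and incubated with the enzyme reaction for 60 min at 22° C. The reaction was stopped with EDTA, and biotinylated peptide phosphorylation was read by TR-FRET using Eu anti-mouse IgG, anti-phosphoserine antibody and streptavidin-XL665. IC50 was fitted by 4-parameter logistic to inhibition normalized to no-inhibitor and no-enzyme controls.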
With `O=C1CCCc2[nH]c(-c3ccnc(NCCC(F)(F)F)c3)c(Nc3ccccc3)c21` [Example 365, 3-(phenylamino)-2-{2-[(3,3,3-trifluoropropyl)amino]pyridin-4-yl}-1,5,6,7-tetrahydro-4H-indol-4-one] the IC50 was 604 nM. With `O=C1CCCc2[nH]c(-c3ccnc(NCc4ccccc4)c3)c(Nc3ccccc3)c21` [Example 366, 2-[2-(benzylamino)pyridin-4-yl]-3-(phenylamino)-1,5,6,7-tetrahydro-4H-indol-4-one] the IC50 was 1660 nM. `O=C1CCCc2[nH]c(-c3ccnc(NCc4ccncc4)c3)c(Nc3ccccc3)c21` [Example 367, 3-(phenylamino)-2-{2-[(pyridin-4-ylmethyl)amino]pyridin-4-yl}-1,5,6,7-tetrahydro-4H-indol-4-one] was tested, and the IC50 was 291 nM. `O=C1CCCc2[nH]c(-c3ccnc(NCC4CC4)c3)c(Nc3ccccc3)c21` [Example 368, 2-{2-[(cyclopropylmethyl)amino]pyridin-4-yl}-3-(phenylamino)-1,5,6,7-tetrahydro-4H-indol-4-one] gave an IC50 of 622 nM. In the case of `O=C(O)CNc1cc(-c2[nH]c3c(c2Nc2ccccc2)C(=O)CCC3)ccn1` [Example 369, N-{4-[4-oxo-3-(phenylamino)-4,5,6,7-tetrahydro-1H-indol-2-yl]pyridin-2-yl}glycine], the IC50 is reported as 362 nM. `CC1(C)OC[C@H](CNc2cc(-c3[nH]c4c(c3Nc3ccccc3)C(=O)CCC4)ccn2)O1` [Example 370, 2-[2-({[(4S)-2,2-dimethyl-1,3-dioxolan-4-yl]methyl}amino)pyridin-4-yl]-3-(phenylamino)-1,5,6,7-tetrahydro-4H-indol-4-one] showed an IC50 of 1300 nM. In the case of `O=C1CCCc2[nH]c(-c3ccnc(NC[C@H](O)CO)c3)c(Nc3ccccc3)c21` [Example 371, 2 2-(2-{[(2S)-2,3-dihydroxypropyl]amino}pyridin-4-yl)-3-(phenylamino)-1,5,6,7-tetrahydro-4H-indol-4-one], the IC50 is reported as 1010 nM. `O=C1CCCc2[nH]c(-c3ccnc(NCc4cccnc4)c3)c(Nc3ccccc3)c21` [Example 372, 3-(phenylamino)-2-{2-[(pyridin-3-ylmethyl)amino]pyridin-4-yl}-1,5,6,7-tetrahydro-4H-indol-4-one] showed an IC50 of 9530 nM. `CC(C)(C)OC(=O)N1CC(CNc2cc(-c3[nH]c4c(c3Nc3ccccc3)C(=O)CCC4)ccn2)C1` [Example 373, tert-butyl 3-[({4-[4-oxo-3-(phenylamino)-4,5,6,7-tetrahydro-1H-indol-2-yl]pyridin-2-yl}amino)methyl]azetidine-1-carboxylate] gave an IC50 of 694 nM. With `Cn1nnnc1Nc1cc(-c2[nH]c3c(c2Nc2ccccc2)C(=O)CCC3)ccn1` [Example 374, 2-{2-[(1-methyl-1H-tetrazol-5-yl)amino]pyridin-4-yl}-3-(phenylamino)-1,5,6,7-tetrahydro-4H-indol-4-one] the IC50 was 18.8 nM. For `O=C1CCCc2[nH]c(-c3ccnc(Nc4cccc(F)c4)c3)c(Nc3ccccc3)c21` [Example 375, 2-{2-[(3-fluorophenyl)amino]pyridin-4-yl}-3-(phenylamino)-1,5,6,7-tetrahydro-4H-indol-4-one], the IC50 was 330 nM. Work on `CC(C)Nc1cnccc1-c1[nH]c2c(c1Nc1ccccc1)C(=O)CCC2` [Example 376, 3-(phenylamino)-2-[3-(propan-2-ylamino)pyridin-4-yl]-1,5,6,7-tetrahydro-4H-indol-4-one] yielded an IC50 of 2510 nM. For `CCNC(=O)Nc1cc(-c2[nH]c3c(c2Nc2ccccc2)C(=O)CCC3)ccn1` [Example 377, 1-ethyl-3-{4-[4-oxo-3-(phenylamino)-4,5,6,7-tetrahydro-1H-indol-2-yl]pyridin-2-yl}urea], the IC50 was 30.1 nM. Work on `CC(C)NC(=O)Nc1cc(-c2[nH]c3c(c2Nc2ccccc2)C(=O)CCC3)ccn1` [Example 378, 1-{4-[4-oxo-3-(phenylamino)-4,5,6,7-tetrahydro-1H-indol-2-yl]pyridin-2-yl}-3-propan-2-ylurea] yielded an IC50 of 64.5 nM. For `O=C(Nc1cc(-c2[nH]c3c(c2Nc2ccccc2)C(=O)CCC3)ccn1)NC1CC1` [Example 379, 1-cyclopropyl-3-{4-[4-oxo-3-(phenylamino)-4,5,6,7-tetrahydro-1H-indol-2-yl]pyridin-2-yl}urea], the IC50 was 36.6 nM. With `CC(C)(C)NC(=O)Nc1cc(-c2[nH]c3c(c2Nc2ccccc2)C(=O)CCC3)ccn1` [Example 380, 1-tert-butyl-3-{4-[4-oxo-3-(phenylamino)-4,5,6,7-tetrahydro-1H-indol-2-yl]pyridin-2-yl}urea] the IC50 was 437 nM. With `CC(C)CNC(=O)Nc1cc(-c2[nH]c3c(c2Nc2ccccc2)C(=O)CCC3)ccn1` [Example 381, 1-(2-methylpropyl)-3-{4-[4-oxo-3-(phenylamino)-4,5,6,7-tetrahydro-1H-indol-2-yl]pyridin-2-yl}urea] the IC50 was 94.4 nM. Work on `O=C(NCC(F)(F)F)Nc1cc(-c2[nH]c3c(c2Nc2ccccc2)C(=O)CCC3)ccn1` [Example 382, 1-{4-[4-oxo-3-(phenylamino)-4,5,6,7-tetrahydro-1H-indol-2-yl]pyridin-2-yl}-3-(2,2,2-trifluoroethyl)urea] yielded an IC50 of 84 nM. Compound `COCCNC(=O)Nc1cc(-c2[nH]c3c(c2Nc2ccccc2)C(=O)CCC3)ccn1` [Example 383, 1-(2-methoxyethyl)-3-{4-[4-oxo-3-(phenylamino)-4,5,6,7-tetrahydro-1H-indol-2-yl]pyridin-2-yl}urea] has an IC50 of 69.1 nM. With `O=C(NCc1ccco1)Nc1cc(-c2[nH]c3c(c2Nc2ccccc2)C(=O)CCC3)ccn1` [Example 384, 1-(furan-2-ylmethyl)-3-{4-[4-oxo-3-(phenylamino)-4,5,6,7-tetrahydro-1H-indol-2-yl]pyridin-2-yl}urea] the IC50 was 113 nM. For `O=C(Nc1ccncc1)Nc1cc(-c2[nH]c3c(c2Nc2ccccc2)C(=O)CCC3)ccn1` [Example 385, 1-{4-[4-oxo-3-(phenylamino)-4,5,6,7-tetrahydro-1H-indol-2-yl]pyridin-2-yl}-3-pyridin-4-ylurea], the IC50 was 10.1 nM. `O=C(Nc1ccccn1)Nc1cc(-c2[nH]c3c(c2Nc2ccccc2)C(=O)CCC3)ccn1` [Example 386, 1-{4-[4-oxo-3-(phenylamino)-4,5,6,7-tetrahydro-1H-indol-2-yl]pyridin-2-yl}-3-pyridin-2-ylurea] showed an IC50 of 20.3 nM. Work on `O=C(NCC(F)F)Nc1cc(-c2[nH]c3c(c2Nc2ccccc2)C(=O)CCC3)ccn1` [Example 387, 1-(2,2-difluoroethyl)-3-{4-[4-oxo-3-(phenylamino)-4,5,6,7-tetrahydro-1H-indol-2-yl]pyridin-2-yl}urea] yielded an IC50 of 63.5 nM. Work on `O=C(NCCCl)Nc1cc(-c2[nH]c3c(c2Nc2ccccc2)C(=O)CCC3)ccn1` [Example 388, 1-(2-chloroethyl)-3-{4-[4-oxo-3-(phenylamino)-4,5,6,7-tetrahydro-1H-indol-2-yl]pyridin-2-yl}urea] yielded an IC50 of 43.4 nM. `CSCCNC(=O)Nc1cc(-c2[nH]c3c(c2Nc2ccccc2)C(=O)CCC3)ccn1` [Example 389, 1-[2-(methylsulfanyl)ethyl]-3-{4-[4-oxo-3-(phenylamino)-4,5,6,7-tetrahydro-1H-indol-2-yl]pyridin-2-yl}urea] gave an IC50 of 38.9 nM. With `Cn1cc(NC(=O)Nc2cc(-c3[nH]c4c(c3Nc3ccccc3)C(=O)CCC4)ccn2)cn1` [Example 390, 1-(1-methyl-1H-pyrazol-4-yl)-3-{4-[4-oxo-3-(phenylamino)-4,5,6,7-tetrahydro-1H-indol-2-yl]pyridin-2-yl}urea] the IC50 was 3.96 nM. Work on `Cn1cc(NC(=O)Nc2cc(-c3[nH]c4c(c3Nc3ccccc3)C(=O)CC(C)(C)C4)ccn2)cn1` [Example 391, 1-{4-[6,6-dimethyl-4-oxo-3-(phenylamino)-4,5,6,7-tetrahydro-1H-indol-2-yl]pyridin-2-yl}-3-(1-methyl-1H-pyrazol-4-yl)urea] yielded an IC50 of 4.52 nM. For `CNC(=S)Nc1cc(-c2[nH]c3c(c2Nc2ccccc2)C(=O)CCC3)ccn1` [Example 392, 1-methyl-3-{4-[4-oxo-3-(phenylamino)-4,5,6,7-tetrahydro-1H-indol-2-yl]pyridin-2-yl}thiourea], the IC50 was 87.5 nM. In the case of `CCNC(=S)Nc1cc(-c2[nH]c3c(c2Nc2ccccc2)C(=O)CCC3)ccn1` [Example 393, 1-ethyl-3-{4-[4-oxo-3-(phenylamino)-4,5,6,7-tetrahydro-1H-indol-2-yl]pyridin-2-yl}thiourea], the IC50 is reported as 233 nM. Compound `O=C1CCCc2[nH]c(-c3ccnc(NC(=S)NCC(F)(F)F)c3)c(Nc3ccccc3)c21` [Example 394, 1-{4-[4-oxo-3-(phenylamino)-4,5,6,7-tetrahydro-1H-indol-2-yl]pyridin-2-yl}-3-(2,2,2-trifluoroethyl)thiourea] has an IC50 of 1150 nM. For `O=C1CCCc2[nH]c(-c3ccnc(NC(=S)NC4CC4)c3)c(Nc3ccccc3)c21` [Example 395, 1-cyclopropyl-3-{4-[4-oxo-3-(phenylamino)-4,5,6,7-tetrahydro-1H-indol-2-yl]pyridin-2-yl}thiourea], the IC50 was 213 nM. `CC(C)(C)NC(=S)Nc1cc(-c2[nH]c3c(c2Nc2ccccc2)C(=O)CCC3)ccn1` [Example 396, 1-tert-butyl-3-{4-[4-oxo-3-(phenylamino)-4,5,6,7-tetrahydro-1H-indol-2-yl]pyridin-2-yl}thiourea] was tested, and the IC50 was 2460 nM. In the case of `O=C1CCCc2[nH]c(-c3ccnc(NC(=S)NC4CCCC4)c3)c(Nc3ccccc3)c21` [Example 397, 1-cyclopentyl-3-{4-[4-oxo-3-(phenylamino)-4,5,6,7-tetrahydro-1H-indol-2-yl]pyridin-2-yl}thiourea], the IC50 is reported as 1050 nM. Work on `O=C1CCCc2[nH]c(-c3ccnc(NC(=S)NCC4CC4)c3)c(Nc3ccccc3)c21` [Example 398, 1-(cyclopropylmethyl)-3-{4-[4-oxo-3-(phenylamino)-4,5,6,7-tetrahydro-1H-indol-2-yl]pyridin-2-yl}thiourea] yielded an IC50 of 552 nM. For `CCCNC(=S)Nc1cc(-c2[nH]c3c(c2Nc2ccccc2)C(=O)CCC3)ccn1` [Example 399, 1-{4-[4-oxo-3-(phenylamino)-4,5,6,7-tetrahydro-1H-indol-2-yl]pyridin-2-yl}-3-propylthiourea], the IC50 was 292 nM.
